# In PubChem BioAssay (NCI):
#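 48-hour exposure; five concentrations; linearly interpolated endpoints. Here, GI50 denotes the concentration required for 50% inhibition of growth. TGI: concentration producing complete growth inhibition.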
# Columns and labels:
# Test in all cases: inhibition of tumour cell growth, NCI panel, 48 h
# 786-0 renal = system: 786-0 renal
# A498 renal = system: A498 renal
# A549 NSCLC = system: A549 NSCLC
# ACHN renal = system: ACHN renal
# BT-549 breast = system: BT-549 breast
# CAKI-1 renal = system: CAKI-1 renal
# CCRF-CEM leukemia = system: CCRF-CEM leukemia
# COLO 205 colon = system: COLO 205 colon
# DU-145 prostate = system: DU-145 prostate
# EKVX NSCLC = system: EKVX NSCLC
# HCC-2998 colon = system: HCC-2998 colon
# HCT-116 colon = system: HCT-116 colon
# HCT-15 colon = system: HCT-15 colon
# HL-60(TB) leukemia = system: HL-60(TB) leukemia
# HOP-62 NSCLC = system: HOP-62 NSCLC
# HOP-92 NSCLC = system: HOP-92 NSCLC
# HT29 colon = system: HT29 colon
# IGROV1 ovarian = system: IGROV1 ovarian
# K-562 leukemia = system: K-562 leukemia
# KM12 colon = system: KM12 colon
# LOX IMVI melanoma = system: LOX IMVI melanoma
# M14 melanoma = system: M14 melanoma
# MALME-3M melanoma = system: MALME-3M melanoma
# MCF7 breast = system: MCF7 breast
# MDA-MB-231 breast = system: MDA-MB-231 breast
# MDA-MB-435 = system: MDA-MB-435
# MOLT-4 leukemia = system: MOLT-4 leukemia
# NCI-H226 lung = system: NCI-H226 lung
# NCI-H23 lung = system: NCI-H23 lung
# NCI-H460 lung = system: NCI-H460 lung
# NCI-H522 lung = system: NCI-H522 lung
# OVCAR-3 ovarian = system: OVCAR-3 ovarian
# OVCAR-5 ovarian = system: OVCAR-5 ovarian
# PC-3 prostate = system: PC-3 prostate
# RPMI-8226 leukemia = system: RPMI-8226 leukemia
# RXF 393 renal = system: RXF 393 renal
# SF-295 CNS = system: SF-295 CNS
# SF-539 CNS = system: SF-539 CNS
# SK-MEL-2 melanoma = system: SK-MEL-2 melanoma
# SK-MEL-28 melanoma = system: SK-MEL-28 melanoma
# SK-MEL-5 melanoma = system: SK-MEL-5 melanoma
# SK-OV-3 ovarian = system: SK-OV-3 ovarian
# SN12C renal = system: SN12C renal
# SNB-19 CNS = system: SNB-19 CNS
# SNB-75 CNS = system: SNB-75 CNS
# SR leukemia = system: SR leukemia
# SW-620 colon = system: SW-620 colon
# T-47D breast = system: T-47D breast
# TK-10 renal = system: TK-10 renal
# UACC-257 melanoma = system: UACC-257 melanoma
# UACC-62 melanoma = system: UACC-62 melanoma
# UO-31 renal = system: UO-31 renal
# HS 578T breast = system: HS 578T breast
# NCI/ADR-RES ovarian = system: NCI/ADR-RES ovarian
# OVCAR-4 ovarian = system: OVCAR-4 ovarian
# OVCAR-8 ovarian = system: OVCAR-8 ovarian
# SF-268 CNS = system: SF-268 CNS
# U251 CNS = system: U251 CNS
smiles,measurement,setting,value
CN1CCN(Cc2ccc(NC(=O)c3cncc(C#Cc4cnc5ccc(N6CCSCC6)nn45)c3)cc2C(F)(F)F)CC1,GI50,786-0 renal,189 nM
same,TGI,786-0 renal,762 nM
same,GI50,A498 renal,307 nM
same,TGI,A498 renal,537 nM
same,GI50,A549 NSCLC,272 nM
same,TGI,A549 NSCLC,1580 nM
same,GI50,ACHN renal,224 nM
same,TGI,ACHN renal,1200 nM
same,GI50,BT-549 breast,354 nM
same,TGI,BT-549 breast,1240 nM
same,GI50,CAKI-1 renal,221 nM
same,TGI,CAKI-1 renal,787 nM
same,GI50,CCRF-CEM leukemia,303 nM
same,GI50,COLO 205 colon,153 nM
same,TGI,COLO 205 colon,429 nM
same,GI50,DU-145 prostate,202 nM
same,TGI,DU-145 prostate,600 nM
same,GI50,EKVX NSCLC,100 nM
same,TGI,EKVX NSCLC,877 nM
same,GI50,HCC-2998 colon,245 nM
same,TGI,HCC-2998 colon,878 nM
same,GI50,HCT-116 colon,112 nM
same,TGI,HCT-116 colon,1160 nM
same,GI50,HCT-15 colon,172 nM
same,TGI,HCT-15 colon,564 nM
same,GI50,HL-60(TB) leukemia,78.2 nM
same,TGI,HL-60(TB) leukemia,520 nM
same,GI50,HOP-62 NSCLC,338 nM
same,TGI,HOP-62 NSCLC,1450 nM
same,GI50,HOP-92 NSCLC,41.8 nM
same,TGI,HOP-92 NSCLC,240 nM
same,GI50,HT29 colon,74.4 nM
same,TGI,HT29 colon,554 nM
same,GI50,IGROV1 ovarian,168 nM
same,TGI,IGROV1 ovarian,806 nM
same,TGI,K-562 leukemia,753 nM
same,TGI,KM12 colon,340 nM
same,GI50,LOX IMVI melanoma,152 nM
same,TGI,LOX IMVI melanoma,535 nM
same,GI50,M14 melanoma,156 nM
same,TGI,M14 melanoma,760 nM
same,GI50,MALME-3M melanoma,202 nM
same,TGI,MALME-3M melanoma,1070 nM
same,GI50,MCF7 breast,45.9 nM
same,TGI,MCF7 breast,598 nM
same,GI50,MDA-MB-231 breast,74.2 nM
same,TGI,MDA-MB-231 breast,572 nM
same,GI50,MDA-MB-435,197 nM
same,TGI,MDA-MB-435,1480 nM
same,GI50,MOLT-4 leukemia,198 nM
same,TGI,MOLT-4 leukemia,666 nM
same,GI50,NCI-H226 lung,51.8 nM
same,TGI,NCI-H226 lung,780 nM
same,GI50,NCI-H23 lung,156 nM
same,TGI,NCI-H23 lung,595 nM
same,GI50,NCI-H460 lung,208 nM
same,TGI,NCI-H460 lung,532 nM
same,GI50,NCI-H522 lung,132 nM
same,TGI,NCI-H522 lung,340 nM
same,GI50,OVCAR-3 ovarian,322 nM
same,TGI,OVCAR-3 ovarian,1290 nM
same,GI50,OVCAR-5 ovarian,282 nM
same,TGI,OVCAR-5 ovarian,1320 nM
same,GI50,PC-3 prostate,327 nM
same,TGI,PC-3 prostate,1990 nM
same,GI50,RPMI-8226 leukemia,333 nM
same,TGI,RPMI-8226 leukemia,2070 nM
same,GI50,RXF 393 renal,141 nM
same,TGI,RXF 393 renal,295 nM
same,GI50,SF-295 CNS,310 nM
same,TGI,SF-295 CNS,1600 nM
same,GI50,SF-539 CNS,93.6 nM
same,TGI,SF-539 CNS,275 nM
same,GI50,SK-MEL-2 melanoma,260 nM
same,TGI,SK-MEL-2 melanoma,745 nM
same,GI50,SK-MEL-28 melanoma,498 nM
same,TGI,SK-MEL-28 melanoma,1850 nM
same,GI50,SK-MEL-5 melanoma,786 nM
same,TGI,SK-MEL-5 melanoma,2080 nM
same,GI50,SK-OV-3 ovarian,656 nM
same,TGI,SK-OV-3 ovarian,2060 nM
same,GI50,SN12C renal,112 nM
same,TGI,SN12C renal,702 nM
same,GI50,SNB-19 CNS,446 nM
same,TGI,SNB-19 CNS,1350 nM
same,GI50,SNB-75 CNS,256 nM
same,TGI,SNB-75 CNS,832 nM
same,GI50,SR leukemia,208 nM
same,TGI,SR leukemia,712 nM
same,GI50,SW-620 colon,153 nM
same,TGI,SW-620 colon,1090 nM
same,GI50,T-47D breast,1400 nM
same,TGI,T-47D breast,3890 nM
same,GI50,TK-10 renal,319 nM
same,TGI,TK-10 renal,1080 nM
same,GI50,UACC-257 melanoma,599 nM
same,TGI,UACC-257 melanoma,2340 nM
same,GI50,UACC-62 melanoma,468 nM
same,TGI,UACC-62 melanoma,1930 nM
same,GI50,UO-31 renal,280 nM
same,TGI,UO-31 renal,855 nM
Clc1cccc(/C=N/Nc2nc(N/N=C/c3cccc(Cl)c3)nc(N3CCOCC3)n2)c1,GI50,786-0 renal,1070 nM
same,TGI,786-0 renal,4120 nM
same,GI50,A498 renal,1670 nM
same,TGI,A498 renal,5650 nM
same,GI50,A549 NSCLC,3570 nM
same,TGI,A549 NSCLC,> 100000 nM
same,GI50,ACHN renal,2110 nM
same,TGI,ACHN renal,> 100000 nM
same,GI50,BT-549 breast,3220 nM
same,TGI,BT-549 breast,> 100000 nM
same,GI50,CAKI-1 renal,2770 nM
same,TGI,CAKI-1 renal,> 100000 nM
same,GI50,CCRF-CEM leukemia,1340 nM
same,TGI,CCRF-CEM leukemia,6600 nM
same,GI50,COLO 205 colon,1230 nM
same,TGI,COLO 205 colon,> 100000 nM
same,GI50,DU-145 prostate,2620 nM
same,TGI,DU-145 prostate,> 100000 nM
same,GI50,EKVX NSCLC,4230 nM
same,TGI,EKVX NSCLC,> 100000 nM
same,GI50,HCC-2998 colon,2730 nM
same,TGI,HCC-2998 colon,> 100000 nM
same,GI50,HCT-116 colon,1270 nM
same,TGI,HCT-116 colon,> 100000 nM
same,GI50,HL-60(TB) leukemia,505 nM
same,TGI,HL-60(TB) leukemia,3080 nM
same,GI50,HOP-62 NSCLC,4670 nM
same,TGI,HOP-62 NSCLC,> 100000 nM
same,GI50,HOP-92 NSCLC,2170 nM
same,TGI,HOP-92 NSCLC,> 100000 nM
same,GI50,HS 578T breast,3760 nM
same,TGI,HS 578T breast,> 100000 nM
same,GI50,HT29 colon,1340 nM
same,TGI,HT29 colon,> 100000 nM
same,GI50,IGROV1 ovarian,4610 nM
same,TGI,IGROV1 ovarian,> 100000 nM
same,GI50,K-562 leukemia,699 nM
same,TGI,K-562 leukemia,7650 nM
same,GI50,KM12 colon,3610 nM
same,TGI,KM12 colon,> 100000 nM
same,GI50,LOX IMVI melanoma,2990 nM
same,TGI,LOX IMVI melanoma,> 100000 nM
same,GI50,M14 melanoma,3080 nM
same,TGI,M14 melanoma,> 100000 nM
same,GI50,MALME-3M melanoma,2860 nM
same,TGI,MALME-3M melanoma,5570 nM
same,GI50,MCF7 breast,2470 nM
same,TGI,MCF7 breast,> 100000 nM
same,GI50,MDA-MB-231 breast,9160 nM
same,TGI,MDA-MB-231 breast,> 100000 nM
same,GI50,MDA-MB-435,4240 nM
same,TGI,MDA-MB-435,> 100000 nM
same,GI50,MOLT-4 leukemia,1490 nM
same,TGI,MOLT-4 leukemia,4400 nM
same,GI50,NCI-H23 lung,4050 nM
same,TGI,NCI-H23 lung,> 100000 nM
same,GI50,NCI-H460 lung,3470 nM
same,TGI,NCI-H460 lung,> 100000 nM
same,GI50,NCI-H522 lung,3210 nM
same,TGI,NCI-H522 lung,> 100000 nM
same,GI50,NCI/ADR-RES ovarian,3390 nM
same,TGI,NCI/ADR-RES ovarian,> 100000 nM
same,GI50,OVCAR-3 ovarian,2870 nM
same,TGI,OVCAR-3 ovarian,59900 nM
same,GI50,OVCAR-4 ovarian,5820 nM
same,TGI,OVCAR-4 ovarian,> 100000 nM
same,GI50,OVCAR-5 ovarian,> 100000 nM
same,TGI,OVCAR-5 ovarian,> 100000 nM
same,GI50,OVCAR-8 ovarian,4580 nM
same,TGI,OVCAR-8 ovarian,> 100000 nM
same,GI50,PC-3 prostate,2910 nM
same,TGI,PC-3 prostate,> 100000 nM
same,GI50,RPMI-8226 leukemia,1900 nM
same,TGI,RPMI-8226 leukemia,6790 nM
same,GI50,RXF 393 renal,1000 nM
same,TGI,RXF 393 renal,3510 nM
same,GI50,SF-268 CNS,5100 nM
same,TGI,SF-268 CNS,> 100000 nM
same,GI50,SF-295 CNS,4130 nM
same,TGI,SF-295 CNS,> 100000 nM
same,GI50,SF-539 CNS,5390 nM
same,TGI,SF-539 CNS,> 100000 nM
same,GI50,SK-MEL-28 melanoma,2860 nM
same,TGI,SK-MEL-28 melanoma,7740 nM
same,GI50,SK-MEL-5 melanoma,1720 nM
same,TGI,SK-MEL-5 melanoma,3440 nM
same,GI50,SN12C renal,4990 nM
same,TGI,SN12C renal,> 100000 nM
same,GI50,SNB-19 CNS,37000 nM
same,TGI,SNB-19 CNS,> 100000 nM
same,GI50,SNB-75 CNS,3330 nM
same,TGI,SNB-75 CNS,> 100000 nM
same,GI50,SR leukemia,329 nM
same,TGI,SR leukemia,2580 nM
same,GI50,SW-620 colon,1780 nM
same,TGI,SW-620 colon,> 100000 nM
same,GI50,T-47D breast,3540 nM
same,TGI,T-47D breast,> 100000 nM
same,GI50,TK-10 renal,5890 nM
same,TGI,TK-10 renal,> 100000 nM
same,GI50,U251 CNS,3490 nM
same,TGI,U251 CNS,> 100000 nM
same,GI50,UACC-257 melanoma,2470 nM
same,TGI,UACC-257 melanoma,6520 nM
same,GI50,UACC-62 melanoma,4540 nM
same,TGI,UACC-62 melanoma,> 100000 nM
same,GI50,UO-31 renal,1610 nM
same,TGI,UO-31 renal,> 100000 nM
